Test results from patent US20220160686A1, “MACROCYCLIC AZOLOPYRIDINE DERIVATIVES AS EED AND PRC2 MODULATORS” (Fulcrum Therapeutics, Inc., priority 2019, published 2022).
Like-named read-outs stand apart in the source and are kept apart here.

What was measured:
EZH2/PRC2 complex = EZH2/PRC2 complex (Homo sapiens, UniProt O75530); assay: Histone methyltransferase assay (radioisotope-based HotSpot); assay type: biochemical; conditions: EZH2/PRC2 complex 10 nM, core histone substrate 0.05 mg/ml, 3H-SAM 1 μM; read-out: IC50, inhibitory effects on the HMT enzyme
Chain of EZH2/PRC2 complex (O75530 whole entry): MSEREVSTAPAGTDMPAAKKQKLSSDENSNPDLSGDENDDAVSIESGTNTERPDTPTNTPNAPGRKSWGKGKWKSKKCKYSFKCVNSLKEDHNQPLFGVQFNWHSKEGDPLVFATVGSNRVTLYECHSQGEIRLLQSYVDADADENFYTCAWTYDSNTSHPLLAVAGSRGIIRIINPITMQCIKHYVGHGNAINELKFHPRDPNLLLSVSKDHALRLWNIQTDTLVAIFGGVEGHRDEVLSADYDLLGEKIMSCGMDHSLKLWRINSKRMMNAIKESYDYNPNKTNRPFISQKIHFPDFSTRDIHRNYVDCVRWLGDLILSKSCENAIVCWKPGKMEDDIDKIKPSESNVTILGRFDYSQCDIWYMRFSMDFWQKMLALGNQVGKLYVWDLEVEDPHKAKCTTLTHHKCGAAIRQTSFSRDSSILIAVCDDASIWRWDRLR
Chain of EZH2/PRC2 complex (Q15910 whole entry partner): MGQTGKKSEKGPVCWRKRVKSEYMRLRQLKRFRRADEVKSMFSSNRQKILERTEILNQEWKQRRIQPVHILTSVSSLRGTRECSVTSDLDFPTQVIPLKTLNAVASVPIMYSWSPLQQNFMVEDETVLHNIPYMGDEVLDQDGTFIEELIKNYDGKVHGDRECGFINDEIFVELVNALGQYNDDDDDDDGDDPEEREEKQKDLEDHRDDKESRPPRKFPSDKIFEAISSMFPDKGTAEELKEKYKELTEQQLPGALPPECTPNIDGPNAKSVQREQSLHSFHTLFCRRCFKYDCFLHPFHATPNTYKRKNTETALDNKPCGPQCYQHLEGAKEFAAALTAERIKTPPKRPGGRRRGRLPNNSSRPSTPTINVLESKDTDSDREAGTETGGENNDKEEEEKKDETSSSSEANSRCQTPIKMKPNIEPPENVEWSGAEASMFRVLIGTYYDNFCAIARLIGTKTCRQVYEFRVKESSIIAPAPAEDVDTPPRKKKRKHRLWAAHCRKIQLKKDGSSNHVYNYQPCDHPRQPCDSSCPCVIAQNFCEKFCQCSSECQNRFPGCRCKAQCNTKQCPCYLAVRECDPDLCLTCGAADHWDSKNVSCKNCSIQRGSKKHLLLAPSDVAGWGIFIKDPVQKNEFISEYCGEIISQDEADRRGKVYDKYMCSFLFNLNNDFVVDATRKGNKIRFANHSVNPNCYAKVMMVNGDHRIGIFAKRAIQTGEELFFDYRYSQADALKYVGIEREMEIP
Chain of EZH2/PRC2 complex (Q15022 whole entry partner): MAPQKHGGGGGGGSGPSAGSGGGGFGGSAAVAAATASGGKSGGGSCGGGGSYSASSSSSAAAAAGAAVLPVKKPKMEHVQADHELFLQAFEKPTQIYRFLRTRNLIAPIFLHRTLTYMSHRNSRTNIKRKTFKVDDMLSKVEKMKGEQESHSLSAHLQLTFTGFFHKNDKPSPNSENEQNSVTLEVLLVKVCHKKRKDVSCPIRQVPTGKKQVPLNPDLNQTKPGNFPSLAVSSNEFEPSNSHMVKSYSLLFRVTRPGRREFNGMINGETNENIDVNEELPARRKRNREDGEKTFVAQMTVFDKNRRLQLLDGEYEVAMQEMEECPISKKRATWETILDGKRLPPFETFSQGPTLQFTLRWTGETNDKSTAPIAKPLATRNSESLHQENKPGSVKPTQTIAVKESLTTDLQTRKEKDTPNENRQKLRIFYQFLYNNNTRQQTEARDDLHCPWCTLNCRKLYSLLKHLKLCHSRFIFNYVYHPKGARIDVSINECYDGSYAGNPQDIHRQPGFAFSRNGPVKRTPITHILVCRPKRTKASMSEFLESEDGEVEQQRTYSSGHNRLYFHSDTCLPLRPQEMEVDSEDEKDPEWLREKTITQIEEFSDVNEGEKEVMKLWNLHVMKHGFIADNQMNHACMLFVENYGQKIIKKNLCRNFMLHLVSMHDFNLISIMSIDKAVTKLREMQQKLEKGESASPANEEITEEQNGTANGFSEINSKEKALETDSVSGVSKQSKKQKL
Description: Effect of compounds of the present disclosure on EZH2/PRC2 complex methyltransferase functional activity was measured using the radioisotope-based HotSpot assay described by Horiuchi, K. Y., et al. Assay Drug Dev Technol. 11(4):227-36 (2013). Briefly, compounds were prepared in a 10-point 3-fold serial dilution in DMSO from a 10 mM stock in ECHO qualified plate using Assist Plus (Integra Biosciences) liquid handler. […] Nanoliter quantities of each compound's concentration series were transferred into the enzyme/substrate mix using (Echo 550, LabCyte Inc. Sunnyvale, Calif.) acoustic dispenser and pre-incubated for 20 min at room temperature. The methylation reaction was initiated by the addition of 1 μl of 5 μM S-Adenosyl-L-[methyl-^3H]methionine (^3H-SAM) and incubated at 30° C. for 1 h. The final concentration of the EZH2/PRC2 complex, core histone substrate and ^3H-SAM were 10 nM, 0.05 mg/ml, and 1 μM respectively. The % activity of test samples were calculated with reference to positive (no compound) and negative (no EZH2/PRC2) controls on the plate using Excel (Microsoft). The resulting values were exported to Prism (GraphPad software) to generate concentration response curves and IC50 values using the four-parameter logistic equation.

[1] = test system: human P-glycoprotein HEK cells (HEK-P-gp); assay: H3K27me3 immunocytochemistry assay in P-gp expressing HEK293T cells, with or without elacridar; assay type: cell-based; conditions: Homo sapiens, 4 days compound treatment
Outline: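 HEK293T stably expressing human ABCB1 (vinblastine-selected), 1000 cells/well, treated with serially diluted compound for 4 days at 37° C, with or without 250 nM elacridar. Fixed cells stained with anti-H3K27me3 plus Alexa 488 secondary and Hoechst; imaged at 10×, nuclei identified by Hoechst.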

[2] = target: T1, biotinylated AVI-tagged EED (76-441) (Homo sapiens, UniProt O75530); assay: EED binding SPR assay; conditions: 1:1 binding model; read-out: KD, equilibrium dissociation constant as measured by surface plasmon resonance (SPR)
T1 construct: GST (N, cleaved yes); made in house; host or cells: E. coli BL21(DE3), co-expressed with pGro7
T1 sequence (O75530 76-441 limits assumed): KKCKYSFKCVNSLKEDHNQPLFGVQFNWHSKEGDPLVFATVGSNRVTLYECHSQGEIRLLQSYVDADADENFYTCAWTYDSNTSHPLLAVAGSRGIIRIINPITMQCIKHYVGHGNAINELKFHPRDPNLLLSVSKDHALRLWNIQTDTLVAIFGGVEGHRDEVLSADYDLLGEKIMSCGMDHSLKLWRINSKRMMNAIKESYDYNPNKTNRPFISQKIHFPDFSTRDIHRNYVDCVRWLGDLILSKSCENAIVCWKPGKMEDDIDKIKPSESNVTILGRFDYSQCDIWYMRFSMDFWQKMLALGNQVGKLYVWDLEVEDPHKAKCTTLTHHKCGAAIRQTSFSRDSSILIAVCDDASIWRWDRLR
Description: Biotinylated AVI-tagged EED was produced using standard molecular biology techniques. A pGEX plasmid with a GST-preScission-cleavage-site-AVI-EED(76-441) sequence was placed into E. coli BL21(DE3) cells and co-expressed with pGro7. The E. coli were grown in shaker flasks in LB with ampicillin at 37° C. at 110 rpm to an OD600=0.7. At this time the temperature was lowered to 15° C. and IPTG was added to 0.3 mM. The cells were allowed to express overnight. Cells were then harvested.
For purification, the E. coli cell pellet was lysed into a buffer of 50 mM Tris pH 8.0, 500 mM NaCl, 5% glycerol and 5 mM DTT. The lysate was loaded onto a GSTrap FF column from GE Healthcare. After washing, the bound protein was eluted with 50 mM Tris pH 8.0, 500 mM NaCl, 5% glycerol, 5 mM DTT and 15 mM GSH. The collected fractions were combined and incubated with PreScission enzyme overnight at 4° C. The cleaved protein was then passed through a GSTrap FF column in a buffer of 50 mM Tris pH 8.0, 500 mM NaCl, 5% glycerol and 5 mM DTT. The cleaved protein was confirmed through mass spectrometry. The AVI-EED(76-441) was then buffer exchanged into 50 mM Bicine pH 8.3, 10 mM ATP, 10 mM magnesium acetate and 50 μM D-Biotin. 3 mg of BirA enzyme was added to the system and incubated at 4° C. for 2 hours to biotinylate the AVI-EED(76-441). The biotinylated-AVI-EED(76-441) was then buffer exchanged into 20 mM Tris pH 8.0 and 400 mM NaCl and passed through a size exclusion column of Superdex 200 16/60 Increase. The purified monomeric biotinylated-AVI-EED(76-441) was confirmed through SDS-PAGE, LC-MS and analytical size exclusion chromatography.
All surface plasmon resonance (SPR) assays were performed using a GE Biacore S200 utilizing GE Biotin CAPture chips. Capturing of CAP reagents was performed with a flow rate of 2 μL/min for 90 seconds. For protein capturing, a solution of 50 μg/mL of biotinylated AVI-tagged EED (76-441) in 10 mM HEPES pH 7.4, 150 mM NaCl, 0.05% Tween 20 and 2% DMSO (Running Buffer) was flowed over the chip with a flow rate of 5 μL/min for a contact time of 30 seconds. Final readings were 2200-2400 RU. For compounds, 7 concentrations were made with 3-dilutions using the Running Buffer for a total of 300 μL of each concentration in a 96-well microplate. During the binding experiments, a flow rate of […] was used for an association time of 90 seconds followed by a disassociation time of 180 seconds. The compartment temperature was set at 10° C. with the chip at 25° C. During regeneration the flow rate was set to 30 μL/min for 30 seconds. All fittings were done using a 1:1 binding model.

[3] = HEK293, 96 h, without elacridar, read-out: IC50, inhibitory activity on human P-glycoprotein HEK cells (HEK-P-gp)
[4] = HEK293, with 250 nM elacridar, read-out: IC50, inhibitory activity on human P-glycoprotein HEK cells (HEK-P-gp) pretreated with elacridar

| SMILES | IC50 (EZH2/PRC2 complex) [nM] | Kd [2] [nM] | IC50 [1, 3] [nM] | IC50 [1, 4] [nM] |
| --- | --- | --- | --- | --- |
| Cc1ncccc1-c1cc2c(n3cnnc13)NCc1c(F)ccc3c1[C@H](CO3)CO2 [Compound 185, (R)-12-fluoro-4-(2-methylpyridin-3-yl)-7a,8,13,14-tetrahydro-7H-[1,2,4]triazolo[4′,3′:1,6]pyrido[3,2-b]benzofuro[4,3-fg][1,4]oxazonine] | > 500 |  | > 500 | > 500 |
| CC(=O)N1CCC(c2cc3c(n4cnnc24)NCc2c(F)cccc2COC3)CC1 [Compound 198, 1-(4-(12-fluoro-6,8,13,14-tetrahydro-[1,2,4]triazolo[4′,3′:1,6]pyrido[3,2-c]benzo[g][1,5]oxazonin-4-yl)piperidin-1-yl)ethan-1-one] | > 500 |  |  |  |
| Cc1ncccc1-c1cc2c(n3cc(C(=O)O)nc13)NCc1c(F)ccc3c1[C@@H](CO3)CO2 [Compound 177, (S)-5-fluoro-12-(2-methylpyridin-3-yl)-6,7,15,15a-tetrahydro-1H-benzofuro[4,3-fg]imidazo[r,2′:1,6]pyrido[3,2-b][1,4]oxazonine-10-carboxylic acid] |  | 10 to 50 | > 500 | > 500 |
| Fc1ccc2c3c1CNc1c(cc(-c4cnn5c4CCC5)c4nncn14)OC[C@@H]3CO2 [Compound 171, (S)-4-(5,6-dihydro-4H-pyrrolo[1,2-b]pyrazol-3-yl)-12-fluoro-7a,8,13,14-tetrahydro-7H-[1,2,4]triazolo[4',3':1,6]pyrido[3,2-b]benzofuro [4,3-fg][1,4] oxanzonine] |  | < 2.5 | > 500 | > 500 |

Second part, led by results:

| IC50 (EZH2/PRC2 complex) [nM] | Kd [2] [nM] | SMILES | IC50 [1, 3] [nM] | IC50 [1, 4] [nM] |
| --- | --- | --- | --- | --- |
|  | < 2.5 | Cc1cc(-c2cc3c(n4cnnc24)NCc2c(F)ccc4c2[C@H](CO4)CO3)cnn1 [Example 123] | > 500 | > 500 |
|  | < 2.5 | CN1CCN(c2ncc(-c3cc4c(n5cnnc35)NCc3c(F)ccc5c3[C@H](CO5)CO4)cn2)CC1 [Example 118] | 100 to 500 | 50 to 100 |
